Data on four compounds can be found in patent publication US4814332A, “Antimicrobial 1,3-disubstituted/imidazolium salts” (Hoffman-La Roche Inc., priority 1986, dated 1989).

Data set [1] deals with Litomosoides carinii. The experiment in a line: filaricidal activity on cotton rats infected with Litomosoides carinii. The class given is in vivo, Litomosoides carinii (in cotton rats, Sigmodon hispidus). The conditions noted are these: sc, 1008 h, s.c., L. carinii-infected cotton rats, treated 14 weeks after infection, dissected 42 days after treatment, Probit analysis, read-out: ED90 (dosage at which 90% of the worms removed from the pleural cavity are dead). On the procedure: (§1) The filaricidal activity of the compounds of formula I can be determined, for example, on cotton rats (Sigmodon hispidus) which have been infected with Litomosoides carinii. The infection with L. carinii is transmitted by the blood-sucking mite Bdellonyssus bacoti in which the development of the microfilaria in infectious larvae takes place. The cotton rats are infected by exposing them to bites of infected mites. After fourteen (14) weeks, the infected groups of 2-4 animals are treated subcutaneously with the compound to be tested. Forty two (42) days after treatment with the compound to be tested, the experimental animals are dissected, and the adult filaria are removed from the pleural cavity. Living and dead or encapsulated worms are separated from one another and weighed. The filaricidal activity is expressed as the percentage proportion of dead macrofilaria per treatment group. The ED90 is then determined by means of Probit analysis using the values from different dosage groups. The ED90 is that dosage at which 90% of the worms removed from the pleural cavity are dead. In the following Table, the results which were obtained in the previously described test with representative members of the class of compound defined by formula I are compiled. Moreover, the Table contains data concerning the acute toxicity of some of the compounds of formula I in mg per kg obtained after single oral administration to mice.

Data set [2] is described as follows: acute toxicity after single oral administration to mice. The note with it: mouse, in vivo, p.o. On the procedure: as §1, with “Moreover, the Table contains data concerning the acute toxicity of some of the compounds of formula I in mg per kg obtained after single oral administration to mice.” left out

For `CN(C)C=Cc1n(N=Cc2ccc(N(C)C)cc2)cc[n+]1N=Cc1ccc(N(C)C)cc1.[Cl-]` [Compound A, 1,3-bis[[p-(dimethylamino)benzylidene]amino]-2-[2-(dimethylamino)vinyl]imidazolium chloride], in data set [1], the ED90 stood at 1 mg/kg. In addition, the LD50 (usually the dose expected to kill half of the subjects tested) in data set [2] was in the range of 312 to 625 mg/kg. Consider `CN(C)c1ccc(C=Nn2cc[n+](N=Cc3ccc(N(C)C)cc3)c2C=CN2CCCCC2)cc1.[Cl-]` [Compound B, 1,3-bis[[p-(dimethylamino)benzylidene]amino]-2-(2-piperidinovinyl)imidazolium chloride], for which, in data set [1], the ED90 was found to be 2 mg/kg. On the same count and under the same terms, then `CN(C)c1ccc(C=Nn2cc[n+](N=Cc3ccc(N(C)C)cc3)c2C=CN2CCOCC2)cc1.[Cl-]` [Compound C, 1,3-bis[[p-(dimethylamino)benzylidene]amino]-2-(2-morpholinovinyl)imidazolium chloride], with 0.55 mg/kg. With `CN(C)c1ccc(C=Nn2cc[n+](N=Cc3ccc(N(C)C)cc3)c2-c2ccccc2)cc1.[Cl-]` [Compound D, 1,3-bis[[p-(dimethylamino)benzylidene]amino]-2-phenylimidazolium chloride], in data set [1], the ED90 was less than 1 mg/kg. In data set [2], this compound registered an LD50 of 1250 to 2500 mg/kg.
